Data set [1] is described as follows: Complexation (phase solubility) study of pantoprazole with βCD and HPβCD in phosphate buffer pH 7. Type of data set: physicochemical. To be noted: in the presence of βCD (up to 1.8% p/v), phosphate buffer pH 7, maximum. The protocol: Methods: Various solutions of the different cyclodextrins taken into consideration were prepared in phosphate buffer solution pH 7 at known concentrations and used to create saturated solutions of pantoprazole. After equilibration, these saturated solutions were filtered through MF™ membrane filters (pore size 0.45 μm), appropriately diluted with phosphate buffer solution and subjected to uv/vis spectrophotometric analysis. The cyclodextrin solutions prepared with phosphate buffer ranged from concentrations of 0% p/v up to 1.8% p/v for βCD, 20% p/v for HPβCD.

Data set [2] is described as follows: Phase-solubility studies of PNTH with β-CD, HPβ-CD and SBβ-CD in phosphate buffer pH 7. Type of data set: physicochemical. To be noted: for solubility: thermodynamic from solid; for increase of apparent solubility versus phosphate buffer alone: phosphate buffer pH 7. The protocol: The Solubility of PNTH in Phosphate Buffer Solution at pH 7 was Determined Using a Previously Constructed Asorbance vs. Concentration Calibration Curve.
A known amount of PNTH was suspended in cyclodextrin solutions of different concentrations ranging from; 0 to 1.8% (p/v) for β-CD, 0 to 20% (p/v) for H-Pβ-CD and 0 to 15% (p/v) for SB-β-CD. The resulting suspension was filtered using a PTFE 0.45μ filter, adequately diluted and then subjected to UV spectrophotometric analysis. The concentration of PNTH in the corresponding sample was then calculated referring to the relevant PNTH calibration curve.
UV-VIS spectra were recorded on a Jasco V570 Spectrophoto meter.

In brackets after ≈: the same amount, converted by molar mass. Read-outs that look alike come from different tables or passages of the source.

Take `COc1ccnc(C[S+]([O-])c2nc3ccc(OC(F)F)cc3[nH]2)c1OC` (centres unmarked) [pantoprazole, 5-difluoromethoxy-2-[(3,4-dimethoxy-2-pyridinyl)methylsulfinyl]-1H-benzimidazole]: the “increase of solubility with respect to solubility in phosphate buffer” value in data set [1] is on record as “four”. The solubility in data set [2] (aqueous buffer, phosphate buffer solution pH 7, no cyclodextrin, read-out: solubility in phosphate buffer alone) was determined as 0.56 mM (≈ 215 µg/mL); in data set [2] (aqueous with cosolvent or surfactant or cyclodextrin, solutions of HPβ-CD (0 to 20% p/v) in phosphate buffer pH 7, maximum reached, read-out: apparent solubility with HPβ-CD) it was 17.8 mM (≈ 6820 µg/mL); in data set [2] (aqueous with cosolvent or surfactant or cyclodextrin, solutions of SBβ-CD (0 to 15% p/v) in phosphate buffer pH 7, maximum reached, read-out: apparent solubility with SBβ-CD), 9.3 mM (≈ 3570 µg/mL); in data set [2] (aqueous with cosolvent or surfactant or cyclodextrin, solutions of β-CD (0 to 1.8% p/v) in phosphate buffer pH 7, maximum reached, read-out: apparent solubility with β-CD) it was 2.25 mM (≈ 863 µg/mL). Further, the “increase of apparent solubility versus phosphate buffer alone” value is listed as 36 times in data set [2] (solutions of HPβ-CD (0 to 20% p/v)), “twenty” in data set [2] (solutions of SBβ-CD (0 to 15% p/v)) and “four” in data set [2] (solutions of β-CD (0 to 1.8% p/v)).

The record behind these values is patent publication US20050171057A1, “Pantoprazole cyclodextrin inclusion complexes” (ALTANA PHARMA AG, priority 2002, published 2005).
